# In patent US20260250290A1 (BRISTOL-MYERS SQUIBB COMPANY, priority 2023, published 2026):
# pIC50: −log10 of the molar value.
# Molecular target: T1, full length SGK1 (Homo sapiens, UniProt O00141)
# T1 construct: 125 μM full length SGK1 (Life Technologies Part #PR7358A); purchased Life Technologies PR7358A
# T1 sequence (O00141 1-431): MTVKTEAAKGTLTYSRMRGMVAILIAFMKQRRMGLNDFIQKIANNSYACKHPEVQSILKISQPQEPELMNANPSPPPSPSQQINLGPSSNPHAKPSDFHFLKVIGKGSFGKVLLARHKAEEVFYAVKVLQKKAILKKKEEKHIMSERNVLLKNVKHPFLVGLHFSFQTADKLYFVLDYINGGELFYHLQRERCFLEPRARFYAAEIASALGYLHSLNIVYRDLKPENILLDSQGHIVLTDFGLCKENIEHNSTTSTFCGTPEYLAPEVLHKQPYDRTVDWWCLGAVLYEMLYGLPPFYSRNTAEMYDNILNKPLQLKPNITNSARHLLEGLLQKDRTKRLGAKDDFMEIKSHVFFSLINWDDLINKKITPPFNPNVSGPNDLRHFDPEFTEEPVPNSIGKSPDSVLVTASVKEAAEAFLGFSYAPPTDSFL
# Assay: SGK1 inhibition Assay A (Caliper LabChip electrophoretic separation of fluorescent peptide substrate and phosphorylated product)
# Assay type: biochemical
# Settings: Assay A; 20 μM ATP, 40 min incubation; read-out: SGK1 IC50
row,pIC50,SMILES
1,8.22,"COc1ccc2[nH]c(C(=O)N[C@@H]3CCCN(c4cc(C5=CCN(C(C)=O)C5)n5ncnc(N)c45)C3)cc2c1 [Example 491, (R)-N-(1-(7-(1-acetyl-2,5-dihydro-1H-pyrrol-3-yl)-4-aminopyrrolo[2,1-f][1,2,4]triazin-5-yl)piperidin-3-yl)-5-methoxy-1H-indole-2-carboxamide]"
2,7.28,"CC(=O)N1CC=C(c2cc(N3CCC[C@@H](NC(=O)c4cc(-c5ccccc5)ncn4)C3)c3c(N)ncnn23)C1 [Example 492, (R)-N-(1-(7-(1-acetyl-2,5-dihydro-1H-pyrrol-3-yl)-4-aminopyrrolo[2,1-f][1,2,4]triazin-5-yl)piperidin-3-yl)-6-phenylpyrimidine-4-carboxamide]"
3,8.22,"CC(=O)N1CC=C(c2cc(N3CCC[C@@H](NC(=O)c4cc(-c5ccccc5)n[nH]4)C3)c3c(N)ncnn23)C1 [Example 493, (R)-N-(1-(7-(1-acetyl-2,5-dihydro-1H-pyrrol-3-yl)-4-aminopyrrolo[2,1-f][1,2,4]triazin-5-yl)piperidin-3-yl)-3-phenyl-1H-pyrazole-5-carboxamide]"
4,7.42,"CC(=O)N1CC=C(c2cc(N3CCC[C@@H](NC(=O)c4ccc(C#N)cc4)C3)c3c(N)ncnn23)C1 [Example 494, (R)-N-(1-(7-(1-acetyl-2,5-dihydro-1H-pyrrol-3-yl)-4-aminopyrrolo[2,1-f][1,2,4]triazin-5-yl)piperidin-3-yl)-4-cyanobenzamide]"
5,7.06,"CC(=O)N1CC=C(c2cc(N3CCC[C@@H](NC(=O)c4cccc(C#N)c4)C3)c3c(N)ncnn23)C1 [Example 495, (R)-N-(1-(7-(1-acetyl-2,5-dihydro-1H-pyrrol-3-yl)-4-aminopyrrolo[2,1-f][1,2,4]triazin-5-yl)piperidin-3-yl)-3-cyanobenzamide]"
6,6.46,"COc1cc(C#N)ccc1C(=O)N[C@@H]1CCCN(c2cc(C3=CCN(C(C)=O)C3)n3ncnc(N)c23)C1 [Example 496, (R)-N-(1-(7-(1-acetyl-2,5-dihydro-1H-pyrrol-3-yl)-4-aminopyrrolo[2,1-f][1,2,4]triazin-5-yl)piperidin-3-yl)-4-cyano-2-methoxybenzamide]"
7,9.00,"NC(=O)c1ccc(-c2cc(N3CCC[C@@H](NC(=O)c4ccc(C(F)F)s4)C3)c3c(N)ncnn23)cc1F [Example 497, (R)-N-(1-(4-amino-7-(4-carbamoyl-3-fluorophenyl)pyrrolo[2,1-f][1,2,4]triazin-5-yl)piperidin-3-yl)-5-(difluoromethyl)thiophene-2-carboxamide]"
8,7.39,"COC(=O)N1CC=C(c2cc(N3CCC[C@@H](NC(=O)c4cc5cc(C#N)ccc5[nH]4)C3)c3c(N)ncnn23)C1 [Example 498, Methyl (R)-3-(4-amino-5-(3-(5-cyano-1H-indole-2-carboxamido)piperidin-1-yl)pyrrolo[2,1-f][1,2,4]triazin-7-yl)-2,5-dihydro-1H-pyrrole-1-carboxylate]"
9,6.92,"COC(=O)N1CC=C(c2cc(N3CCC[C@@H](NC(=O)c4cc5cc(F)ccc5[nH]4)C3)c3c(N)ncnn23)C1 [Example 499, methyl (R)-3-(4-amino-5-(3-(5-fluoro-1H-indole-2-carboxamido)piperidin-1-yl)pyrrolo[2,1-f][1,2,4]triazin-7-yl)-2,5-dihydro-1H-pyrrole-1-carboxylate]"
10,6.73,"COC(=O)N1CC=C(c2cc(N3CCC[C@@H](NC(=O)c4cc5ccc(C(F)(F)F)cc5[nH]4)C3)c3c(N)ncnn23)C1 [Example 500, methyl (R)-3-(4-amino-5-(3-(6-(trifluoromethyl)-1H-indole-2-carboxamido)piperidin-1-yl)pyrrolo[2,1-f][1,2,4]triazin-7-yl)-2,5-dihydro-1H-pyrrole-1-carboxylate]"
11,6.53,"CC(=O)N1CC=C(c2cc(N3CCC[C@@H](NC(=O)c4cc(-c5cncnc5)n[nH]4)C3)c3c(N)ncnn23)C1 [Example 501, (R)-N-(1-(7-(1-acetyl-2,5-dihydro-1H-pyrrol-3-yl)-4-aminopyrrolo[2,1-f][1,2,4]triazin-5-yl)piperidin-3-yl)-3-(pyrimidin-5-yl)-1H-pyrazole-5-carboxamide]"
12,7.41,"N#Cc1ncc(-c2cc(N3CCC[C@@H](NC(=O)c4ccc(C(F)F)s4)C3)c3c(N)ncnn23)cn1 [Example 502, (R)-N-(1-(4-amino-7-(2-cyanopyrimidin-5-yl)pyrrolo[2,1-f][1,2,4]triazin-5-yl)piperidin-3-yl)-5-(difluoromethyl)thiophene-2-carboxamide]"
13,8.05,"Nc1ncnn2c(-c3ccc(=O)n(CC(F)F)c3)cc(N3CCC[C@@H](NC(=O)c4cc5ccccc5[nH]4)C3)c12 [Example 503, (R)-N-(1-(4-amino-7-(1-(2,2-difluoroethyl)-6-oxo-1,6-dihydropyridin-3-yl)pyrrolo[2,1-f][1,2,4]triazin-5-yl)piperidin-3-yl)-1H-indole-2-carboxamide]"
14,8.70,"Nc1ncnn2c(-c3ccc(=O)n(CC(F)F)c3)cc(N3CCC[C@@H](NC(=O)c4cc(-c5ccccc5)n[nH]4)C3)c12 [Example 504, (R)-N-(1-(4-amino-7-(1-(2,2-difluoroethyl)-6-oxo-1,6-dihydropyridin-3-yl)pyrrolo[2,1-f][1,2,4]triazin-5-yl)piperidin-3-yl)-3-phenyl-1H-pyrazole-5-carboxamide]"
15,8.22,"N#Cc1cc(-c2cc(N3CCC[C@@H](NC(=O)c4ccc(C(F)F)s4)C3)c3c(N)ncnn23)ccn1 [Example 505, (R)-N-(1-(4-amino-7-(2-cyanopyridin-4-yl)pyrrolo[2,1-f][1,2,4]triazin-5-yl)piperidin-3-yl)-5-(difluoromethyl)thiophene-2-carboxamide]"
16,6.05,"CN(C)CCn1c(C(=O)N[C@@H]2CCCN(c3cc(-c4ccc(C#N)nc4)n4ncnc(N)c34)C2)cc2ccccc21 [Example 506, (R)-N-(1-(4-amino-7-(6-cyanopyridin-3-yl)pyrrolo[2,1-f][1,2,4]triazin-5-yl)piperidin-3-yl)-1-(2-(dimethylamino)ethyl)-1H-indole-2-carboxamide]"
17,7.09,"CC(C)Cn1cc(-c2cc(N3CCC[C@@H](NC(=O)c4cc5ccccc5[nH]4)C3)c3c(N)ncnn23)ccc1=O [Example 507, (R)-N-(1-(4-amino-7-(1-isobutyl-6-ox0-1,6-dihydropyridin-3-yl)pyrrolo[2,1-f][1,2,4]triazin-5-yl)piperidin-3-yl)-1H-indole-2-carboxamide]"
18,6.71,"Nc1ncnn2c(-c3cncnc3)cc(N3CCC[C@@H](NC(=O)c4cc5ccccc5[nH]4)C3)c12 [Example 508, (R)-N-(1-(4-amino-7-(pyrimidin-5-yl)pyrrolo[2,1-f][1,2,4]triazin-5-yl)piperidin-3-yl)-1H-indole-2-carboxamide]"
19,7.68,"N#Cc1ccc(-c2cc(N3CCC[C@@H](NC(=O)c4cc5ccccc5[nH]4)C3)c3c(N)ncnn23)cn1 [Example 509, (R)-N-(1-(4-amino-7-(6-cyanopyridin-3-yl)pyrrolo[2,1-f][1,2,4]triazin-5-yl)piperidin-3-yl)-1H-indole-2-carboxamide]"
20,7.36,"CC(C)Cn1cc(-c2cc(N3CCC[C@@H](NC(=O)c4ccc(C(F)F)s4)C3)c3c(N)ncnn23)ccc1=O [Example 510, (R)-N-(1-(4-amino-7-(1-isobutyl-6-oxo-1,6-dihydropyridin-3-yl)pyrrolo[2,1-f][1,2,4]triazin-5-yl)piperidin-3-yl)-5-(difluoromethyl)thiophene-2-carboxamide]"
